# Where “and” joins values, the source holds several entries; their conditions need not be identical. Equal values may be shown once.
# Test system: carrageenan-induced mechanical hyperalgesia in rats
# Assay: Carrageenan-induced mechanical hyperalgesia, paw pressure test, time course to 240 min (Example 2)
# Type: in vivo, male Sprague-Dawley rats
# Conditions: for Effect on injured paw withdrawal threshold vs vehicle-treated group (in words): time course 30-240 min
# Protocol: In this model, inflammation is induced by intraplantar injection of carrageenan (2%) into the right hindpaw of the rat. Three hours later, reaction thresholds are measured using the paw pressure test. Pressure is gradually applied to both hind paws (inflamed and control) of the rat, and reaction thresholds are determined as the pressure (g) required to elicit paw withdrawal or vocalization. Morphine (3 mg/kg, s.c.) was used as a positive control.
# The experiments in this study used fifty (50) male Sprague-Dawley rats (SPF status, Janvier, France), each weighing 204-260 grams. The rats were housed in a temperature (20-24° C.) and relative humidity (45%-65%) controlled room and acclimated to an artificial day/night cycle of 12 hours light (6.30 a.m. to 6.30 p.m.)/12 hours darkness. Rats had free access to sterilized tap water and were fed ad libitum with pelleted complete diet (reference A04, S.A.F.E.). Rats were housed 4 per cage (cages Type E) and were acclimated for a period of at least 5 days before any testing. Each rat was identified by tail markings. Based on the SPF status of the animal facilities, there is no reason to expect that contaminants were present in the food, water or bedding, at levels capable of interfering with the results of the tests.
# Pain Test: Static mechanical hyperalgesia was assessed using the Paw Pressure test or Randall & Selitto test (Randall, L. O. and Selitto, J. J., A method for measurement of analgesic activity on inflamed tissue, Arch Int Pharmacodyn, 1957(111): 409-419). This test requires the application of an increasing pressure on the hind paws between a flat surface and a blunt pointer. This test is usually used with animals with one hind paw inflamed by an injection or injured by ligation, and one normal hind paw, to evaluate drugs for analgesic action. The apparatus exerts a steadily increasing force and reaction threshold is determined as the pressure (g) required to elicit paw withdrawal and/or vocalization. In the experiment, animals were gently handled by the experimenter and static mechanical hyperalgesia was assessed. Each reaction threshold measurement was done for both hind paws.
# Five (5) experimental groups of 10 rats each were used. Each group was first injected with of 100 μL of a 2% carrageenan suspension in the plantar aspect of the right hindpaw. Three hours after carrageenan injection, paw withdrawal threshold was measured using the paw pressure test (Baseline). The 5 groups were then administered the following: • Group 1: vehicle (0.5% HPMC), i.p., solution (negative control); • Group 2: MIN-117 (0.01 mg/kg, i.p.) in 0.5% HPMC, suspension; • Group 3: MIN-117 (0.1 mg/kg, i.p.) in 0.5% HPMC, suspension; • Group 4: MIN-117 (1 mg/kg, i.p.) in 0.5% HPMC, suspension; and • Group 5: morphine (3 mg/kg, s.c.) in 0.9% NaCl, solution (positive control).
# After administering vehicle, MIN-117, or morphine, the antihyperalgesic effect of the compounds was evaluated using the paw pressure test at 0 min. (T0), 30 min., 60 min., 120 min., and 240 min.
# Vehicle and MIN-117 were administered intraperitoneally at 10 mL/kg. Morphine was subcutaneously administered at 5 mL/kg. Dosing and testing were performed in a random order by a blinded experimenter except for the morphine-treated group. Doses were expressed in terms of free active substance. Rats were sacrificed at the end of the experiment by CO2 inhalation pending subsequent removal by a certified company.
# Results were assessed as: the paw withdrawal threshold (mean±s.e.m.) in grams of contact pressure for each group, calculated from individual paw withdrawal thresholds; the percentage of variation of the paw withdrawal threshold calculated from the mean value of the vehicle-treated group; and/or the percentage of activity. To determine a statistical effect of the test substance and the reference substance, data were analyzed by a non-parametrical test. The significance level was p<0.05.
# [1] = 1 mg/kg i.p., T0 (baseline before dosing)
# [2] = 1 mg/kg i.p., T0 (baseline before dosing), hydrochloride
# [3] = 1 mg/kg i.p., T0 + 30 min, hydrochloride
smiles,measurement,setting,value
"Cc1nnc(-c2cc3c(OC[C@@H](O)CN4CCC(c5ccc(Cl)c(Cl)c5)CC4)cccc3o2)o1.Cl [MIN-117, (2S)-1-(4-(3,4-dichlorophenyl)piperidin-1-yl)-3-((2-(5-methyl-1,3,4-oxadiazol-2-yl)benzofuran-4-yl)oxy)propan-2-ol hydrochloride]","Nociceptive threshold, injured paw (mean ± s.e.m.)","0.1 mg/kg i.p., T0 (baseline before dosing), hydrochloride",178 ± 5.5 g and 178 g
same,"% activity, injured paw","0.1 mg/kg i.p., T0 + 30 min",3%
same,"% variation vs control paw, injured paw","0.1 mg/kg i.p., T0 + 30 min",−48%
same,"% variation vs pre-drug threshold, injured paw","0.1 mg/kg i.p., T0 + 30 min",3%
same,"% variation vs vehicle-treated group, injured paw","0.1 mg/kg i.p., T0 + 30 min",3%
same,"Nociceptive threshold, control paw (mean ± s.e.m.)","0.1 mg/kg i.p., T0 + 30 min",354 g
same,"Nociceptive threshold, injured paw (mean ± s.e.m.)","0.1 mg/kg i.p., T0 + 30 min, hydrochloride",184 ± 5.0 g and 184 g
same,"% activity, injured paw","0.1 mg/kg i.p., T0 + 60 min",−5%
same,"% variation vs control paw, injured paw","0.1 mg/kg i.p., T0 + 60 min",−48%
same,"% variation vs pre-drug threshold, injured paw","0.1 mg/kg i.p., T0 + 60 min",1%
same,"% variation vs vehicle-treated group, injured paw","0.1 mg/kg i.p., T0 + 60 min",−4%
same,"Nociceptive threshold, control paw (mean ± s.e.m.)","0.1 mg/kg i.p., T0 + 60 min",348 g
same,"Nociceptive threshold, injured paw (mean ± s.e.m.)","0.1 mg/kg i.p., T0 + 60 min, hydrochloride",180 ± 7.9 g and 180 g
same,"% activity, injured paw","0.1 mg/kg i.p., T0 + 120 min",−5%
same,"% variation vs control paw, injured paw","0.1 mg/kg i.p., T0 + 120 min",−50%
same,"% variation vs pre-drug threshold, injured paw","0.1 mg/kg i.p., T0 + 120 min",0%
same,"% variation vs vehicle-treated group, injured paw","0.1 mg/kg i.p., T0 + 120 min",−4%
same,"Nociceptive threshold, control paw (mean ± s.e.m.)","0.1 mg/kg i.p., T0 + 120 min",354 g
same,"Nociceptive threshold, injured paw (mean ± s.e.m.)","0.1 mg/kg i.p., T0 + 120 min, hydrochloride",178 ± 7.6 g and 178 g
same,"% activity, injured paw","0.1 mg/kg i.p., T0 + 240 min",−4%
same,"% variation vs control paw, injured paw","0.1 mg/kg i.p., T0 + 240 min",−49%
same,"% variation vs pre-drug threshold, injured paw","0.1 mg/kg i.p., T0 + 240 min",1%
same,"% variation vs vehicle-treated group, injured paw","0.1 mg/kg i.p., T0 + 240 min",−3%
same,"Nociceptive threshold, control paw (mean ± s.e.m.)","0.1 mg/kg i.p., T0 + 240 min",350 g
same,"Nociceptive threshold, injured paw (mean ± s.e.m.)","0.1 mg/kg i.p., T0 + 240 min, hydrochloride",180 ± 8.4 g and 180 g
same,Effect on injured paw withdrawal threshold vs vehicle-treated group (in words),0.1 mg/kg i.p.,did not induce any significant increase
same,"% activity, injured paw",[1],3%
same,"% variation vs control paw, injured paw",[1],−50%
same,"% variation vs vehicle-treated group, injured paw",[1],3%
same,"Nociceptive threshold, control paw (mean ± s.e.m.)",[2],374.0 ± 12.7 g and 374 g
same,"Nociceptive threshold, injured paw (mean ± s.e.m.)",[2],188 ± 9.0 g and 188 g
same,"% activity, injured paw","1 mg/kg i.p., T0 + 30 min",1%
same,"% variation vs control paw, injured paw","1 mg/kg i.p., T0 + 30 min",−49%
same,"% variation vs vehicle-treated group, injured paw","1 mg/kg i.p., T0 + 30 min",1%
same,"Nociceptive threshold, control paw (mean ± s.e.m.)","1 mg/kg i.p., T0 + 30 min",356 g
same,"% variation vs pre-drug threshold, injured paw",[3],−4% and 4%
same,"Nociceptive threshold, injured paw (mean ± s.e.m.)",[3],180 ± 7.3 g and 180 g
same,"% activity, injured paw","1 mg/kg i.p., T0 + 60 min",14%
same,"% variation vs control paw, injured paw","1 mg/kg i.p., T0 + 60 min",−45%
same,"% variation vs pre-drug threshold, injured paw","1 mg/kg i.p., T0 + 60 min",13%
same,"% variation vs vehicle-treated group, injured paw","1 mg/kg i.p., T0 + 60 min",13%
same,"Nociceptive threshold, control paw (mean ± s.e.m.)","1 mg/kg i.p., T0 + 60 min",380 g
same,"Nociceptive threshold, injured paw (mean ± s.e.m.)","1 mg/kg i.p., T0 + 60 min, hydrochloride",212 ± 12.4 g and 212 g
same,"% activity, injured paw","1 mg/kg i.p., T0 + 120 min",29%
same,"% variation vs control paw, injured paw","1 mg/kg i.p., T0 + 120 min",−41%
same,"% variation vs pre-drug threshold, injured paw","1 mg/kg i.p., T0 + 120 min",23%
same,"Nociceptive threshold, control paw (mean ± s.e.m.)","1 mg/kg i.p., T0 + 120 min",392 g
same,"Nociceptive threshold, injured paw (mean ± s.e.m.)","1 mg/kg i.p., T0 + 120 min, hydrochloride",232 ± 7.4 g and 232 g
same,"% activity, injured paw","1 mg/kg i.p., T0 + 240 min",1%
same,"% variation vs control paw, injured paw","1 mg/kg i.p., T0 + 240 min",−49%
same,"% variation vs pre-drug threshold, injured paw","1 mg/kg i.p., T0 + 240 min",0%
same,"% variation vs vehicle-treated group, injured paw","1 mg/kg i.p., T0 + 240 min",1%
same,"Nociceptive threshold, control paw (mean ± s.e.m.)","1 mg/kg i.p., T0 + 240 min",370 g
same,"Nociceptive threshold, injured paw (mean ± s.e.m.)","1 mg/kg i.p., T0 + 240 min, hydrochloride",188 ± 6.1 g and 188 g
same,Effect on injured paw withdrawal threshold vs vehicle-treated group (in words),1 mg/kg i.p.,slight increase in the nociceptive threshold becoming significant 120 min. after injection

# From US11766430B2, “Methods of using a phenoxypropylamine compound to treat pain” (Minerva Neurosciences, Inc., priority 2018, dated 2023)
